# Measured values as given in ChEMBL document CHEMBL5113398, “Design and synthesis of new quinoline derivatives as selective C-RAF kinase inhibitors with potent anticancer activity” (Eur J Med Chem, 2022).
# Legend:
# NCI-H522 = assay: Anticancer activity against human NCI-H522 cells assessed as cell growth inhibition incubated for 48 hrs by SRB assay; format: functional
# K562 = assay: Anticancer activity against human K562 cells assessed as total cell growth inhibition incubated for 48 hrs by SRB assay; format: functional
# SK-MEL-28 = assay: Anticancer activity against human SK-MEL-28 cells assessed as total cell growth inhibition incubated for 48 hrs by SRB assay; format: functional
# MDA-MB-231 [1] = assay: Anticancer activity against human MDA-MB-231 cells assessed as cell growth inhibition incubated for 48 hrs by SRB assay; format: functional
# RPMI-8226 = assay: Anticancer activity against human RPMI-8226 cells assessed as total cell growth inhibition incubated for 48 hrs by SRB assay; format: functional
# MOLT-4 [2] = assay: Anticancer activity against human MOLT-4 cells assessed as total cell growth inhibition incubated for 48 hrs by SRB assay; format: functional
# MDA-MB-468 = assay: Anticancer activity against human MDA-MB-468 cells assessed as cell growth inhibition incubated for 48 hrs by SRB assay; format: functional
# HCT-116 = assay: Anticancer activity against human HCT-116 cells assessed as total cell growth inhibition incubated for 48 hrs by SRB assay; format: functional
# SK-MEL-2 = assay: Anticancer activity against human SK-MEL-2 cells assessed as cell growth inhibition incubated for 48 hrs by SRB assay; format: functional
# HOP-92 = assay: Anticancer activity against human HOP-92 cells assessed as total cell growth inhibition incubated for 48 hrs by SRB assay; format: functional
# SNB-19 [3] = assay: Anticancer activity against human SNB-19 cells assessed as cell growth inhibition incubated for 48 hrs by SRB assay; format: functional
# 786-0 = assay: Anticancer activity against human 786-0 cells assessed as cell growth inhibition incubated for 48 hrs by SRB assay; format: functional
# A498 [4] = assay: Anticancer activity against human A498 cells assessed as total cell growth inhibition incubated for 48 hrs by SRB assay; format: functional
# MDA-MB-231 [5] = assay: Anticancer activity against human MDA-MB-231 cells assessed as total cell growth inhibition incubated for 48 hrs by SRB assay; format: functional
# OVCAR-4 = assay: Anticancer activity against human OVCAR-4 cells assessed as cell growth inhibition incubated for 48 hrs by SRB assay; format: functional
# LOX IMVI = assay: Anticancer activity against human LOX IMVI cells assessed as cell growth inhibition incubated for 48 hrs by SRB assay; format: functional
# MCF7 = assay: Anticancer activity against human MCF7 cells assessed as total cell growth inhibition incubated for 48 hrs by SRB assay; format: functional
# HOP-62 = assay: Anticancer activity against human HOP-62 cells assessed as total cell growth inhibition incubated for 48 hrs by SRB assay; format: functional
# SNB-19 [6] = assay: Anticancer activity against human SNB-19 cells assessed as total cell growth inhibition incubated for 48 hrs by SRB assay; format: functional
# IGROV-1 = assay: Anticancer activity against human IGROV-1 cells assessed as total cell growth inhibition incubated for 48 hrs by SRB assay; format: functional
# SF-539 = assay: Anticancer activity against human SF-539 cells assessed as total cell growth inhibition incubated for 48 hrs by SRB assay; format: functional
# HCT-15 [7] = assay: Anticancer activity against human HCT-15 cells assessed as cell growth inhibition incubated for 48 hrs by SRB assay; format: functional
# SK-OV-3 = assay: Anticancer activity against human SK-OV-3 cells assessed as total cell growth inhibition incubated for 48 hrs by SRB assay; format: functional
# ACHN = assay: Anticancer activity against human ACHN cells assessed as total cell growth inhibition incubated for 48 hrs by SRB assay; format: functional
# EKVX = assay: Anticancer activity against human EKVX cells assessed as total cell growth inhibition incubated for 48 hrs by SRB assay; format: functional
# NCI-H226 [8] = assay: Anticancer activity against human NCI-H226 cells assessed as total cell growth inhibition incubated for 48 hrs by SRB assay; format: functional
# NCI-H322M = assay: Anticancer activity against human NCI-H322M cells assessed as total cell growth inhibition incubated for 48 hrs by SRB assay; format: functional
# KM12 = assay: Anticancer activity against human KM12 cells assessed as total cell growth inhibition incubated for 48 hrs by SRB assay; format: functional
# CCRF-CEM = assay: Anticancer activity against human CCRF-CEM cells assessed as cell growth inhibition incubated for 48 hrs by SRB assay; format: functional
# A549 = assay: Anticancer activity against human A549 cells assessed as total cell growth inhibition incubated for 48 hrs by SRB assay; format: functional
# U-251 = assay: Anticancer activity against human U-251 cells assessed as cell growth inhibition incubated for 48 hrs by SRB assay; format: functional
# OVCAR-5 = assay: Anticancer activity against human OVCAR-5 cells assessed as total cell growth inhibition incubated for 48 hrs by SRB assay; format: functional
# MOLT-4 [9] = assay: Anticancer activity against human MOLT-4 cells assessed as cell growth inhibition incubated for 48 hrs by SRB assay; format: functional
# HL-60 = assay: Anticancer activity against human HL-60 cells assessed as total cell growth inhibition incubated for 48 hrs by SRB assay; format: functional
# UACC-257 = assay: Anticancer activity against human UACC-257 cells assessed as total cell growth inhibition incubated for 48 hrs by SRB assay; format: functional
# COLO 205 = assay: Anticancer activity against human COLO 205 cells assessed as cell growth inhibition incubated for 48 hrs by SRB assay; format: functional
# OVCAR-3 = assay: Anticancer activity against human OVCAR-3 cells assessed as total cell growth inhibition incubated for 48 hrs by SRB assay; format: functional
# M14 = assay: Anticancer activity against human M14 cells assessed as cell growth inhibition incubated for 48 hrs by SRB assay; format: functional
# Hs-578T = assay: Anticancer activity against human Hs-578T cells assessed as total cell growth inhibition incubated for 48 hrs by SRB assay; format: functional
# PC-3 = assay: Anticancer activity against human PC-3 cells assessed as cell growth inhibition incubated for 48 hrs by SRB assay; format: functional
# OVCAR-8 = assay: Anticancer activity against human OVCAR-8 cells assessed as cell growth inhibition incubated for 48 hrs by SRB assay; format: functional
# SN12C = assay: Anticancer activity against human SN12C cells assessed as cell growth inhibition incubated for 48 hrs by SRB assay; format: functional
# NCI-H226 [10] = assay: Anticancer activity against human NCI-H226 cells assessed as cell growth inhibition incubated for 48 hrs by SRB assay; format: functional
# HCC 2998 = assay: Anticancer activity against human HCC 2998 cells assessed as total cell growth inhibition incubated for 48 hrs by SRB assay; format: functional
# SW-620 = assay: Anticancer activity against human SW-620 cells assessed as total cell growth inhibition incubated for 48 hrs by SRB assay; format: functional
# HCT-15 [11] = assay: Anticancer activity against human HCT-15 cells assessed as total cell growth inhibition incubated for 48 hrs by SRB assay; format: functional
# [12] = target: Dual specificity mitogen-activated protein kinase kinase 1 (Homo sapiens) (UniProt Q02750); assay: Inhibition of MEK1 (unknown origin) at 1 uM in presence of ATP by hotspot kinase assay
# Chain of Dual specificity mitogen-activated protein kinase kinase 1 (Homo sapiens) (Q02750 whole entry): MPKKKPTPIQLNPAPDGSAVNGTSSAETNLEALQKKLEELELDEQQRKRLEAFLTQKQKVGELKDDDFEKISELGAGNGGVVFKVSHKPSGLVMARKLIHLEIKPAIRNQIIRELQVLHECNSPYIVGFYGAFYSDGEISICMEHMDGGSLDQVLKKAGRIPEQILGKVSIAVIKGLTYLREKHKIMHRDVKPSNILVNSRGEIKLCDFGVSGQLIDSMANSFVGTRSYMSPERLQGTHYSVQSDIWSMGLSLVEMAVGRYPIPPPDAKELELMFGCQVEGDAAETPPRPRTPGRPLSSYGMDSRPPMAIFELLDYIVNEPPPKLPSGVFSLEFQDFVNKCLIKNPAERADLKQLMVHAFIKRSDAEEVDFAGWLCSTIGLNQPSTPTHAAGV
# A498 [13] = assay: Anticancer activity against human A498 cells assessed as cell growth inhibition incubated for 48 hrs by SRB assay; format: functional
# RXF 393 = assay: Anticancer activity against human RXF 393 cells assessed as cell growth inhibition incubated for 48 hrs by SRB assay; format: functional
structure (smiles),measurement,setting,value
COc1cc2cc(Oc3ccc(NC(=O)Nc4ccc(Cl)c(C(F)(F)F)c4)cc3)c(C)nc2cc1OCCN1CCOCC1,GI50,NCI-H522,1.43 µM
same,TGI,K562,6.95 µM
same,TGI,SK-MEL-28,3.12 µM
same,GI50,MDA-MB-231 [1],2 µM
same,TGI,RPMI-8226,4.34 µM
same,TGI,MOLT-4 [2],10.5 µM
same,GI50,MDA-MB-468,0.47 µM
same,TGI,HCT-116,10.8 µM
same,GI50,SK-MEL-2,1.65 µM
same,TGI,HOP-92,6.17 µM
same,GI50,SNB-19 [3],3.23 µM
same,GI50,786-0,1.89 µM
same,TGI,A498 [4],9.62 µM
same,TGI,MDA-MB-231 [5],5.07 µM
same,GI50,OVCAR-4,0.58 µM
same,GI50,LOX IMVI,1.39 µM
same,TGI,MCF7,3.33 µM
same,TGI,HOP-62,4.55 µM
same,TGI,SNB-19 [6],19.8 µM
same,TGI,IGROV-1,23.2 µM
same,TGI,SF-539,3.26 µM
same,GI50,HCT-15 [7],3.18 µM
same,TGI,SK-OV-3,17.5 µM
same,TGI,ACHN,11.6 µM
same,TGI,EKVX,13.7 µM
same,TGI,NCI-H226 [8],5.91 µM
same,TGI,NCI-H322M,11.2 µM
same,TGI,KM12,5.3 µM
same,GI50,CCRF-CEM,1.45 µM
same,TGI,A549,> 100 µM
same,GI50,U-251,1.76 µM
same,TGI,OVCAR-5,65.2 µM
same,GI50,MOLT-4 [9],1.48 µM
same,TGI,HL-60,7.56 µM
same,TGI,UACC-257,4.55 µM
same,GI50,COLO 205,1.63 µM
same,TGI,OVCAR-3,3.47 µM
same,GI50,M14,1.52 µM
same,TGI,Hs-578T,5.11 µM
same,GI50,PC-3,1.36 µM
same,GI50,OVCAR-8,2.67 µM
same,GI50,SN12C,2.56 µM
same,GI50,NCI-H226 [10],1.86 µM
same,TGI,HCC 2998,11.1 µM
same,TGI,SW-620,5.52 µM
same,TGI,HCT-15 [11],3.18 µM
same,inhibition,[12],21.7%
same,GI50,A498 [13],2.45 µM
same,GI50,RXF 393,1.77 µM
COc1cc2cc(Oc3ccc(NC(=O)Nc4cc(C(F)(F)F)cc(C(F)(F)F)c4)cc3)c(C)nc2cc1OCCN1CCOCC1,GI50,NCI-H522,1.63 µM
same,TGI,K562,5.5 µM
same,TGI,SK-MEL-28,6.94 µM
same,GI50,MDA-MB-231 [1],1.7 µM
same,TGI,RPMI-8226,2.12 µM
same,TGI,MOLT-4 [2],4.29 µM
same,GI50,MDA-MB-468,1.22 µM
same,TGI,HCT-116,5.33 µM
same,GI50,SK-MEL-2,1.74 µM
same,TGI,HOP-92,2.71 µM
same,GI50,SNB-19 [3],1.88 µM
same,GI50,786-0,1.28 µM
same,TGI,A498 [4],6.69 µM
same,TGI,MDA-MB-231 [5],6.45 µM
same,GI50,OVCAR-4,1.88 µM
same,GI50,LOX IMVI,1.46 µM
same,TGI,MCF7,3.91 µM
same,TGI,HOP-62,9.16 µM
same,TGI,SNB-19 [6],7.42 µM
same,TGI,IGROV-1,6.9 µM
same,TGI,SF-539,5.25 µM
same,GI50,HCT-15 [7],1.1 µM
same,TGI,SK-OV-3,8.5 µM
same,TGI,ACHN,5.42 µM
same,TGI,EKVX,6.68 µM
same,TGI,NCI-H226 [8],6.53 µM
same,TGI,NCI-H322M,6.87 µM
same,TGI,KM12,5.95 µM
same,GI50,CCRF-CEM,1.41 µM
same,TGI,A549,7.23 µM
same,GI50,U-251,1.13 µM
same,TGI,OVCAR-5,7.97 µM
same,GI50,MOLT-4 [9],1.32 µM
same,TGI,HL-60,4.93 µM
same,TGI,UACC-257,4.24 µM
same,GI50,COLO 205,1.02 µM
same,TGI,OVCAR-3,5.28 µM
same,GI50,M14,1.51 µM
same,TGI,Hs-578T,7 µM
same,GI50,PC-3,1.18 µM
same,GI50,OVCAR-8,1.67 µM
same,GI50,SN12C,1.49 µM
same,GI50,NCI-H226 [10],1.6 µM
same,TGI,HCC 2998,6.97 µM
same,TGI,SW-620,7.17 µM
same,TGI,HCT-15 [11],2.77 µM
same,inhibition,[12],25.5%
same,GI50,A498 [13],1.8 µM
same,GI50,RXF 393,1.12 µM
